Laboratory results as given in patent US9801953B2, “Nanoparticles carrying nucleic acid cassettes for expressing RNA” (EMORY UNIVERSITY, priority 2012, dated 2017).

Assays:
MIA PaCa-2 cells = experiment: Crystal violet cell proliferation assay; assay type: cell-based; details: Homo sapiens
Text: Survivin is an anti-cell death gene that confers resistance of cancer cells to therapeutic agents. […] However, SV40-NLS-QD-siRNA nanocassettes could not be used for in vivo delivery due to the lack of specificity. Inhibition of survivin expression led to the activation of the apoptotic cell death since a high level of active caspase 3 (17 KDa fragments) was detected in those cell groups by Western blot analysis (FIG. 6B). Targeted internalization of hATF QD-survivin siRNA expressing nanocassettes were further confirmed in the MIA PaCa-2 cell line (FIG. 6C).
The effect of survivin gene silencing using hATF-QD-Survivin siRNA expressing nanocassettes was examined on cell sensitivity to chemotherapy drugs. […] Pancreatic cancer cells have a low sensitivity to free gemcitabine treatment and 60% of viable cells were detected by cell proliferation assay 72 h following 100 μM of gemcitabine treatment (FIG. 7A).
Crystal violet assay was used to determine the percentage of viable cells. […] Percentage of viable cells in the experimental groups was determined by measurements O.D. at 590 nm using Spectra Max Plus (Molecular Devices, Sunnyvale, Calif.). […] Cell lysates were analyzed for their levels of caspase 3-like activity, which is generated by caspases 3, 7, and 10, using an Ac-DEVD-AFC substrate (Calbiochem, San Diego, Calif.). […]

[1] = test system: MCF-10DCIS human breast cancer cells; experiment: Target specificity / intracellular delivery of nanoparticles, fluorescence microscopy; assay type: cell-based; details: 15 pmol of QDs, 24 h
Experimental: (§1) To further quantify gene silencing efficiency in tumor cells in vitro and the detection of dynamic changes in the inhibition of gene expression in animal tumor models in vivo using bioluminescence imaging, U6-luciferase (Luc) siRNA expressing nanocassettes from p-Silencer-firefly luciferase shRNA plasmid were amplified. […] The inhibitory effect was enhanced as the copy number of Luc siRNA nanocassettes on each QD increased from 2 to 10 or 20 (FIG. 4B).
Cells were plated in 24-well culture plates for 24 h and then incubated with various nanoparticles at an equal molar concentration (15 pmol of QDs) for 24 h. Control unconjugated DNA cassettes or plasmids were transfected into cells. As a delivery efficiency control, siRNA expressing nanocassettes were also conjugated to QDs with the NLS peptides from SV40 virus, CGGGPKKKRKVE (SEQ ID NO: 10). The peptide sequence was provided by Dr. Steven Dowdy at University of California, San Diego. The SV-40-NLS peptides were synthesized by Genscript USA Inc. (Piscataway, N.J.). Culture plates were then examined using an inverted Olympus fluorescence microscope.

[2] = mouse, in vivo
Experimental: The tumor bearing mice then received 200 pmol of QDs carrying luciferase siRNA-expressing DNA cassettes (about 2 nmol of DNA cassettes) by tail vein injection. Before and at different time points following the nanoparticle administration, 2 mg/Kg of luciferin substrate was injected intraperitoneally into the mice for 5 min before each bioluminescence imaging procedure using identical imaging conditions and an Olympus OV-100 small animal imaging system (Olympus America Inc.).

[3] = test system: luciferase positive MCF-10DCIS tumors; experiment: Bioluminescence imaging of gene silencing in orthotopic breast cancer xenografts; assay type: in vivo, nude mice
Experimental: One of the major obstacles in applying siRNA technology to cancer therapy is the low delivery and gene silencing efficiencies in the tumor following systemic administration. To determine the gene silencing efficiency of uPAR-targeted siRNA expressing nanocassettes, hATF-QD-Luc siRNA nanocassettes were injected via the tail vein into nude mice bearing orthotopic luciferase positive MCF-10DCIS tumors. Non-invasive bioluminescence imaging was used at different time points to determine changes in the luciferase activity in the tumors. Twenty-four hours after the injection, the level of luciferase activity decreased by 42% in the mice that received hATF-QD-Luc siRNA nanocassettes.
To determine whether the changes in luciferase activity in the tumor were the result of specific silencing of the luciferase gene, mice bearing MCF-10DCIS tumors in the low abdominal mammary gland received a tail vein injection of either hATF-QD-Luc siRNA or hATF-QD-control siRNA nanocassettes. […] Therefore, the effect of down regulation of luciferase gene expression is likely due to the targeted delivery of luciferase siRNA-expressing nanocassettes into the tumor.

[4] = test system: firefly luciferase gene stably transfected human breast cancer MCF-10DCIS cell; experiment: Luciferase activity assay in cell lysates; assay type: cell-based; details: MCF-10DCIS cell lysates, 24 h after nanoparticle incubation
Text: as §1
Following different treatments, cells were collected from culture plates. Cell lysates were examined for luciferase activity using the Single Luciferase Assay System (Promega Corp., Madison, Wis.). The level of the luciferase activity was measured by a luminometer (Lumistar galaxy, BMG, Winooski, VM) for single samples or using the Xenogen IVIS system (Caliper Life Sciences, Mountain View, Calif.) for 96-well plates.

| Compound | viability at 1 µM (MIA PaCa-2 cells; 1 μM gemcitabine, free drug treated group, read-out: percentage of viable cells) | viability at 100 µM (MIA PaCa-2 cells; 100 μM gemcitabine, 72 h, read-out: viable cells) | entry into cells (intracellular delivery efficiency) [1] | levels of QD accumulation in the liver and spleen [2] | decrease in level of luciferase activity in tumor ([3]; 24 h after tail vein injection, 200 pmol QDs) | inhibitory effect on luciferase activity in tumor ([3]; 72 h after injection) | decrease in luciferase activity in the tumor ([3]; 72 h after injection, specificity experiment (FIG. 5C)) | luciferase activity in tumor versus pre-injection ([3]; 140 h after injection) | inhibitory effect on luciferase activity in the tumor ([3]; 144 h after injection (FIG. 5C)) | duration of inhibitory effect on luciferase activity ([3]; after tail vein injection) | luciferase activity [4] |
| --- | --- | --- | --- | --- | --- | --- | --- | --- | --- | --- | --- |
| Nc1ccn([C@@H]2O[C@H](CO)[C@@H](O)C2(F)F)c(=O)n1 [gemcitabine] | 94% | 60% | – | – | – | – | – | – | – | – | – |
| hATF-QD-Luc siRNA nanocassettes: U6-luciferase siRNA expressing DNA nanocassettes conjugated to QDs with human ATF targeting ligands | – | – | could efficiently enter | markedly decreased | 42% | further enhanced | > 90% | returned to the pre-injection level | still strong | over 120 h | decrease in luciferase activity |
